10 compounds from ChEMBL document CHEMBL1144593, “Bicyclic carbamates as inhibitors of papain-like cathepsin proteases” (Bioorg Med Chem Lett, 2007) can be followed below.

Molecules are shown by their SMILES. The source made the active and inactive calls. The rule behind the calls is not given here. A value given as a limit tells only on which side of the number the result lay.

In one test the target is Cathepsin B (Homo sapiens, UniProt P07858). Kind of test: Inhibition of human recombinant cathepsin B.
The target of the next test is Cathepsin S (Homo sapiens, UniProt P25774). Kind of test: Inhibition of human recombinant cathepsin S.
The next test deals with Dipeptidyl peptidase 1 (Homo sapiens, UniProt P53634). Kind of test: Inhibition of human recombinant cathepsin C.
A further test concerns the target Procathepsin L (Homo sapiens, UniProt P07711). Kind of test: Inhibition of human recombinant cathepsin L.
Another test has as its target T1, Cathepsin K (Homo sapiens, UniProt P43235).
T1 sequence (P43235 whole entry): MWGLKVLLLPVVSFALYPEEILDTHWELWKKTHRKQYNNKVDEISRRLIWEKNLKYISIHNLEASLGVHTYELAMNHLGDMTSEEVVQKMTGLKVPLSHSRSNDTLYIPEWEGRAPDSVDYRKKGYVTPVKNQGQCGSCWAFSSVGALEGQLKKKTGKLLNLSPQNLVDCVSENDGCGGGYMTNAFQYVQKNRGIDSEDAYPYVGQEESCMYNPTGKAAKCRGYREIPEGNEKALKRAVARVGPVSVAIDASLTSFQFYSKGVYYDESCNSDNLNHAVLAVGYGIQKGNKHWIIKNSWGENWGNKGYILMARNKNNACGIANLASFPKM
Kind of test: Inhibition of human recombinant cathepsin K.

The next test has as its target T2, Pro-cathepsin H (Homo sapiens, UniProt P09668).
T2 sequence (P09668 whole entry): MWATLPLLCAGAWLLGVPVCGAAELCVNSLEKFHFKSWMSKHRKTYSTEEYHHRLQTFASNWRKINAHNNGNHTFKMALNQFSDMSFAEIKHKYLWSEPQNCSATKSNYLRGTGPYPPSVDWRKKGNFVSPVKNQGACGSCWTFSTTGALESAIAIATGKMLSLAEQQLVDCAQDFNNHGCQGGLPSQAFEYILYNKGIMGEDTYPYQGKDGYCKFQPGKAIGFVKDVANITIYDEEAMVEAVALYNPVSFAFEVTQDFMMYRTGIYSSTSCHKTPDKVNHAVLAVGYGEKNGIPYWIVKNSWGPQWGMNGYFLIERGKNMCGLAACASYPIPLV
Nature of the test: Inhibition of human recombinant cathepsin H.

A further test concerns the target T3, Cathepsin F (Homo sapiens, UniProt Q9UBX1).
T3 sequence (Q9UBX1 whole entry): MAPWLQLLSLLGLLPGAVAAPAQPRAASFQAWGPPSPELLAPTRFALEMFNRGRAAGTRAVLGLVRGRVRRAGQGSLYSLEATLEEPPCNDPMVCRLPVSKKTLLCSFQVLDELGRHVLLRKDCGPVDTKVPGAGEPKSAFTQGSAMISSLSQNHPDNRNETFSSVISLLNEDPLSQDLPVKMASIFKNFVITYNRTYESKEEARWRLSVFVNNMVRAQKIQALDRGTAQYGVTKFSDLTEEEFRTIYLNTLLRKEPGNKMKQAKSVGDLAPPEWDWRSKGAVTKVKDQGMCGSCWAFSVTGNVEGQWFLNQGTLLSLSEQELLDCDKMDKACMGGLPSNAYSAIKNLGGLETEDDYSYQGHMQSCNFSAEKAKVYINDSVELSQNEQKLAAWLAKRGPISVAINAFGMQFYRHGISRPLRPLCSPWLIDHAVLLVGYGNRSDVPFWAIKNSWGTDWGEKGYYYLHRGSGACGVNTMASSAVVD
Nature of the test: Inhibition of human recombinant cathepsin F.

A further test has as its target T4, Cathepsin L2 (Homo sapiens, UniProt O60911).
T4 sequence (O60911 whole entry): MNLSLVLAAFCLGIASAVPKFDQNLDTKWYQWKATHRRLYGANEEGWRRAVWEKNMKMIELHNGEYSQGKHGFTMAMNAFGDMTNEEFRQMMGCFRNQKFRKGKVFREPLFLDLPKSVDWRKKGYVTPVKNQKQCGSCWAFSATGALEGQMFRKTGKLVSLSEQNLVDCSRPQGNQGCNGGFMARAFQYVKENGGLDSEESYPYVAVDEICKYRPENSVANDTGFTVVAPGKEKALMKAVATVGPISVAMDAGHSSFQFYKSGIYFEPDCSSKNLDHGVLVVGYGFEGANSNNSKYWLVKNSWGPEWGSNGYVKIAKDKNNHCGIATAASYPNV
Kind of test: Inhibition of human recombinant cathepsin V.

The target in a further test is Trypsin (Homo sapiens) (UniProt P07477+P07478+P35030). Kind of test: Inhibition of trypsin. It is filed as protein assay.
Test [1] deals with Prothrombin (Homo sapiens) (UniProt P00734). Nature of the test: Inhibition of thrombin.

Dipeptidyl peptidase 1, sequence (P53634 25-134 limits assumed): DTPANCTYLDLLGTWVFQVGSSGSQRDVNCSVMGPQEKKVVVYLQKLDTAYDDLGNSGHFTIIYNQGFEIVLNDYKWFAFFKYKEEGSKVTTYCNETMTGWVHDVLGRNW
Dipeptidyl peptidase 1, sequence (P53634 231-394 limits assumed): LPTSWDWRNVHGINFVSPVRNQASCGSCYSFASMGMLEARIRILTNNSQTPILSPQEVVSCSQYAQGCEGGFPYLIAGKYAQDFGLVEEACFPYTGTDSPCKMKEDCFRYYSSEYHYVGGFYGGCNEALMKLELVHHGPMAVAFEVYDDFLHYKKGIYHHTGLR
Dipeptidyl peptidase 1, sequence (P53634 395-463 limits assumed): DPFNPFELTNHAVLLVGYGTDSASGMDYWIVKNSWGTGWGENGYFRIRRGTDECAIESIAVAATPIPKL
Cathepsin S, sequence (P25774 whole entry): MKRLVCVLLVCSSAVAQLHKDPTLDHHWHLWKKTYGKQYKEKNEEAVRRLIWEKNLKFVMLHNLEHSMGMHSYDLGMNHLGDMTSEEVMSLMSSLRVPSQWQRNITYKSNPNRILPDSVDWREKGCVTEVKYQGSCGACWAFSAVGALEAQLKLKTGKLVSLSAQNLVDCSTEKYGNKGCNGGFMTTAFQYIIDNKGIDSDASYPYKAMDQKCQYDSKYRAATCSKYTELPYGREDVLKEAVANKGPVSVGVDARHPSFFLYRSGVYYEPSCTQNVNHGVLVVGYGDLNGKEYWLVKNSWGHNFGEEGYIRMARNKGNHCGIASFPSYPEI
Procathepsin L, sequence (P07711 whole entry): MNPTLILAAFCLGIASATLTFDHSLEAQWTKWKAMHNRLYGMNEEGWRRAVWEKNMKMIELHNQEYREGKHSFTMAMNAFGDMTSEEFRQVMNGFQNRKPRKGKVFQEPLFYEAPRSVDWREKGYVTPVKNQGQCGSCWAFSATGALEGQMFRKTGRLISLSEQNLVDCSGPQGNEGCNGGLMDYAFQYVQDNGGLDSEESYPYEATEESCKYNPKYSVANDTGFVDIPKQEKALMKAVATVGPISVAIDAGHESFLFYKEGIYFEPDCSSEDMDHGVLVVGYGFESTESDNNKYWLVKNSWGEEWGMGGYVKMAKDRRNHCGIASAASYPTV

Broadly, the IC50 is the concentration that inhibits the measured activity by half. As to `Cc1cccc(O[C@H]2CCN3C[C@@H]2OC3=O)c1C` (racemic), the IC50 on Cathepsin B was 46 nM; on Cathepsin S, 473 nM; at Dipeptidyl peptidase 1 it was 1730 nM; at Procathepsin L, 1270 nM; on Cathepsin K, 2440 nM; on Pro-cathepsin H, above 30000 nM. The IC50 at Cathepsin F stood at 5910 nM; at Cathepsin L2, 3320 nM. The outcome (at Trypsin (Homo sapiens); in test [1]) was inactive.
On to `Cc1cccc(OCC2CN(C)C(=O)O2)c1C` (stereo not given), for which the IC50 on Cathepsin B, at Cathepsin S, on Dipeptidyl peptidase 1, at Procathepsin L, at Cathepsin K and on Pro-cathepsin H was above 100000 nM each time. Also, the IC50 at Cathepsin F and at Cathepsin L2 was above 100000 nM throughout. In addition, the outcome (at Trypsin (Homo sapiens); in test [1]) was inactive.
In the case of `S=C1O[C@@H]2CN1CC[C@@H]2Oc1ccccc1`, the IC50 on Cathepsin B is 519 nM; on Cathepsin S, 696 nM; at Dipeptidyl peptidase 1, 606 nM; at Procathepsin L, 994 nM; at Cathepsin K it was 1830 nM; on Pro-cathepsin H, above 100000 nM. In addition, the IC50 on Cathepsin F was above 10000 nM; at Cathepsin L2, 5170 nM. Besides, the outcome (at Trypsin (Homo sapiens); in test [1]) was inactive.
Take `CC(C)CO[C@H]1CCN2C[C@H]1OC2=O`: the IC50 was 8 nM at Cathepsin B; 298 nM on Cathepsin S; 191 nM at Dipeptidyl peptidase 1; 230 nM at Procathepsin L; 1270 nM on Cathepsin K; above 10000 nM at Pro-cathepsin H. In addition, the results for the IC50 on Cathepsin F and on Cathepsin L2 were 1830 nM and 894 nM, respectively. Besides, the outcome (at Trypsin (Homo sapiens); in test [1]) was inactive.
Regarding `O=C1O[C@@H]2CN1CC[C@@H]2OCc1ccccc1`, the IC50 on Cathepsin B is 2 nM; on Cathepsin S, 174 nM; on Dipeptidyl peptidase 1, 403 nM; at Procathepsin L it was 263 nM; on Cathepsin K it was 511 nM; at Pro-cathepsin H, above 10000 nM. The IC50 was 3760 nM at Cathepsin F and 1290 nM at Cathepsin L2. Also, the outcome (at Trypsin (Homo sapiens); in [1]) was inactive.
As to `O=C1O[C@@H]2CN1CC[C@@H]2Oc1ccccc1`, the IC50 turned out to be 5 nM on Cathepsin B; 17 nM at Cathepsin S; 29 nM on Dipeptidyl peptidase 1; 26 nM on Procathepsin L; 104 nM at Cathepsin K; 6590 nM at Pro-cathepsin H. Moreover, the IC50 at Cathepsin F turned out to be 487 nM; at Cathepsin L2, 158 nM. In addition, the result (at Trypsin (Homo sapiens); in test [1]) was inactive.
In the case of `Cc1cccc(O[C@@H]2CCNC[C@H]2O)c1C`, the IC50 on Cathepsin B, on Cathepsin S, at Dipeptidyl peptidase 1, at Procathepsin L, at Cathepsin K and at Pro-cathepsin H was above 100000 nM throughout. For the same compound, the IC50 on Cathepsin F and on Cathepsin L2 was above 100000 nM throughout. Further, the result (on Trypsin (Homo sapiens); in test [1]) was inactive.
As for `O=C1O[C@H]2CN1CC[C@@H]2Br`, the IC50 at Cathepsin B was 158 nM; on Cathepsin S it was 4550 nM; at Dipeptidyl peptidase 1 it was above 10000 nM; on Procathepsin L, 5820 nM; on Cathepsin K, above 30000 nM; at Pro-cathepsin H, above 100000 nM. Further, the IC50 on Cathepsin F and on Cathepsin L2 was above 10000 nM throughout. In addition, the outcome (at Trypsin (Homo sapiens); in test [1]) was inactive.
On to `Cc1cccc(O[C@@H]2CCNC[C@@H]2O)c1C`, for which the IC50 on Cathepsin B, at Cathepsin S, on Dipeptidyl peptidase 1, at Procathepsin L, on Cathepsin K and at Pro-cathepsin H was above 100000 nM throughout. In addition, the IC50 at Cathepsin F and at Cathepsin L2 was above 100000 nM each time. Moreover, the outcome (at Trypsin (Homo sapiens); in [1]) was inactive.
On to `Cc1cccc(O[C@H]2CCN3C[C@H]2OC3=O)c1C` (relative stereo), for which the IC50 at Cathepsin B came to 1 nM; at Cathepsin S, 16 nM; at Dipeptidyl peptidase 1, 18 nM; at Procathepsin L, 22 nM; at Cathepsin K, 38 nM; at Pro-cathepsin H, 2650 nM. In addition, the IC50 worked out at 331 nM on Cathepsin F and 131 nM on Cathepsin L2. The result (at Trypsin (Homo sapiens); in test [1]) was inactive.
